Molecular target: T1, mu opiate receptor (MOR) (Rattus norvegicus, UniProt P33535)
T1 construct: from tissue; host or cells: rat striatal membrane preparation
Assay: MOR agonist activity using [35S]GTPγS binding assay in striatal membranes
Type: biochemical
Details: for MOR agonist activity, [35S]GTPγS binding to Gαo, FLNA-binding compound as agonist 0.1 μM: 0.1 μM compound; for MOR agonist activity, [35S]GTPγS binding to Gαo, FLNA-binding compound as agonist 0.1 μM / MOR agonist activity, [35S]GTPγS binding to Gαo, FLNA-binding compound as agonist 1 μM: striatal membranes; for MOR agonist activity, [35S]GTPγS binding to Gαo, 1 μM + BFNA: 1 μM compound + 1 μM β-funaltrexamine; for MOR agonist activity, [35S]GTPγS binding to Gαo, FLNA-binding compound as agonist 1 μM: 1 μM compound
Protocol: To assess the mu opiate receptor (MOR) agonist activity of positive compounds from the FLNA screening, compounds were tested in a [^35S]GTPγS binding assay using striatal membranes.
Striatal tissue was homogenized in 10 volumes of ice cold 25 mM HEPES buffer, pH 7.4, which contained 1 mM EGTA, 100 mM sucrose, 50 μg/ml leupeptin, 0.04 mM PMSF, 2 μg/ml soybean trypsin inhibitor and 0.2% 2-mercaptoethanol. The homogenates were centrifuged at 800×g for 5 minutes and the supernatants were centrifuged at 49,000×g for 20 minutes.
The resultant striatal membrane preparation (200 μg) was admixed and maintained (incubated) at 30° C. for 5 minutes in reaction buffer as above that additionally contained 1 mM MgCl2 and 0.5 nM [^35S]GTPγS (0.1 μCi/assay, PerkinElmer Life and Analytical Sciences) in a total volume of 250 μl and continued for 5 minutes in the absence or presence of 0.1-10 μM of an assayed compound of interest. The reaction was terminated by dilution with 750 μl of ice-cold reaction buffer that contained 20 mM MgCl2 and 1 mM EGTA and immediate centrifugation at 16,000×g for 5 minutes.
The resulting pellet was solubilized by sonicating for 10 seconds in 0.5 ml of immunoprecipitation buffer containing 0.5% digitonin, 0.2% sodium cholate and 0.5% NP-40. Normal rabbit serum (1 μl) was added to 1 ml of lysate and incubated at 25° C. for 30 minutes. Nonspecific immune complexes were removed by incubation with 25 μl of protein A/G-conjugated agarose beads at 25° C. for 30 minutes followed by centrifugation at 5,000×g at 4° C. for 5 minutes. The supernatant was divided and separately incubated at 25° C. for 30 minutes with antibodies raised against Gαo proteins (1:1,000 dilutions).
The immunocomplexes so formed were collected by incubation at 25° C. for 30 minutes with 40 μl of agarose-conjugated protein A/G beads and centrifugation at 5,000×g at 4° C. for 5 minutes. The pellet was washed and suspended in buffer containing 50 mM Tris-HCl, pH 8.0, and 1% NP-40. The radioactivity in the suspension was determined by liquid scintillation spectrometry. […] DAMGO (H-Tyr-D-Ala-Gly-N-MePhe-Gly-OH; 1 or 10 μM) was used as a positive control.

T1 sequence (P33535 whole entry): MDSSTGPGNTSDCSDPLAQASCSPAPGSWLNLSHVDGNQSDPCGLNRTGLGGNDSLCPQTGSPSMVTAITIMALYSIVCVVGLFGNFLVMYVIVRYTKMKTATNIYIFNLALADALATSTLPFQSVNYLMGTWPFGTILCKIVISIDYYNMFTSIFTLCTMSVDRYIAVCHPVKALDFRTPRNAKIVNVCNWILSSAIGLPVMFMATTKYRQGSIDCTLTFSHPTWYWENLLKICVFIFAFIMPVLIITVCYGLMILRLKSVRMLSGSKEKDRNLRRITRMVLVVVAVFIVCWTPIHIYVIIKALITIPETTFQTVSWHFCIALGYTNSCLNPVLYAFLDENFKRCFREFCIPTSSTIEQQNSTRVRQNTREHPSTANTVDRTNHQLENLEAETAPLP

| SMILES | MOR agonist activity, [35S]GTPγS binding to Gαo, FLNA-binding compound as agonist 0.1 μM | MOR agonist activity, [35S]GTPγS binding to Gαo, 1 μM + BFNA | MOR agonist activity, [35S]GTPγS binding to Gαo, FLNA-binding compound as agonist 1 μM |
| --- | --- | --- | --- |
| COc1ccc(S(=O)(=O)N2CCC3(CC2)OCCN3S(=O)(=O)c2ccc(OC)c(OC)c2)cc1OC [Compound C0049] | 106.6% | 81.0% | 210.0% |
| CC(O)c1ccc(S(=O)(=O)N2CCC3(CC2)OCCN3S(=O)(=O)c2ccc(C(C)O)cc2)cc1 (stereo not drawn) [Compound C0051] | 94.4% | 55.9% | 170.4% |
| CC(=O)c1ccc(C(=O)N2CCOC23CCN(S(=O)(=O)c2ccc(C(C)=O)cc2)CC3)cc1 [Compound C0053] | 104.0% | 93.1% | 157.2% |
| CC(=O)c1ccc(C(=O)N2CCC3(CC2)OCCN3C(=O)c2ccc(C(C)=O)cc2)cc1 [Compound C0054] | 68.2% | 43.5% | 127.0% |
| COc1cc(S(=O)(=O)N2CCC3(CC2)OCCN3S(=O)(=O)c2cc(OC)c(OC)c(OC)c2)cc(OC)c1OC [Compound C0062] | 127.8% | 59.8% | 310.5% |
| CC(=O)c1ccc(S(=O)(=O)N2CCC3(CC2)NC(=O)CN3S(=O)(=O)c2ccc(C(C)=O)cc2)cc1 [Compound C0064] | 213.8% | 38.1% | 349.6% |
| CC(=O)c1ccc(S(=O)(=O)N2CCC3(CC2)OC(CN(C)C)CN3S(=O)(=O)c2ccc(C(C)=O)cc2)cc1 (stereo not drawn) [Compound C0065] | 198.3% | 47.7% | 279.5% |
| O=S(=O)(c1ccc(Cl)cc1)N1CCC2(CC1)OCCN2S(=O)(=O)c1ccc(Cl)cc1 [Compound C0067] | 142.7% | 33.5% | 179.0% |
| O=S(=O)(c1ccc(Br)cc1C(F)(F)F)N1CCC2(CC1)OCCN2S(=O)(=O)c1ccc(Br)cc1C(F)(F)F [Compound C0068] | 107.2% | 165.9% | 263.1% |
| O=S(=O)(c1ccc(Br)cc1Br)N1CCC2(CC1)OCCN2S(=O)(=O)c1ccc(Br)cc1Br [Compound C0070] | 165.6% | 114.2% | 210.8% |
| O=S(=O)(c1ccc(C(F)(F)F)cc1Br)N1CCC2(CC1)OCCN2S(=O)(=O)c1ccc(C(F)(F)F)cc1Br [Compound C0071] | 276.3% | 177.1% | 355.3% |
| O=S(=O)(c1ccc(F)c(F)c1)N1CCC2(CC1)OCCN2S(=O)(=O)c1ccc(F)c(F)c1 [Compound C0072] | 172.7% | 67.1% | 259.1% |
| O=S(=O)(c1ccc(Br)c(C(F)(F)F)c1)N1CCC2(CC1)OCCN2S(=O)(=O)c1ccc(Br)c(C(F)(F)F)c1 [Compound C0077] | 192.7% | 136.7% | 265.4% |

— patent US8580809B2, “Filamin A-binding anti-inflammatory analgesic” (Pain Therapeutics, Inc., priority 2009, dated 2013)
